Experimental data published in ChEMBL document CHEMBL4118125, “MK-8325: A silyl proline-containing NS5A inhibitor with pan-genotype activity for treatment of HCV” (Bioorg Med Chem Lett, 2018).
≈ marks a conversion by molar mass, not a printed value.

How the values were obtained:
Canis familiaris [1] = test: Clearance in beagle dog at 1 mg/kg, iv by LC-MS/MS method relative to liver blood flow; assay type: ADME, organism-based, Canis lupus familiaris; conditions: in vivo
[2] = Ratio of drug level in brain to plasma of cynomolgus monkey; assay type: ADME, cell-free, Macaca fascicularis; conditions: read-out: BPR
[3] = biological target: T1, Solute carrier organic anion transporter family member 1B1 (Homo sapiens, UniProt Q9Y6L6); test: Inhibition of human OATP1B1; assay type: ADME
T1 sequence (Q9Y6L6 whole entry): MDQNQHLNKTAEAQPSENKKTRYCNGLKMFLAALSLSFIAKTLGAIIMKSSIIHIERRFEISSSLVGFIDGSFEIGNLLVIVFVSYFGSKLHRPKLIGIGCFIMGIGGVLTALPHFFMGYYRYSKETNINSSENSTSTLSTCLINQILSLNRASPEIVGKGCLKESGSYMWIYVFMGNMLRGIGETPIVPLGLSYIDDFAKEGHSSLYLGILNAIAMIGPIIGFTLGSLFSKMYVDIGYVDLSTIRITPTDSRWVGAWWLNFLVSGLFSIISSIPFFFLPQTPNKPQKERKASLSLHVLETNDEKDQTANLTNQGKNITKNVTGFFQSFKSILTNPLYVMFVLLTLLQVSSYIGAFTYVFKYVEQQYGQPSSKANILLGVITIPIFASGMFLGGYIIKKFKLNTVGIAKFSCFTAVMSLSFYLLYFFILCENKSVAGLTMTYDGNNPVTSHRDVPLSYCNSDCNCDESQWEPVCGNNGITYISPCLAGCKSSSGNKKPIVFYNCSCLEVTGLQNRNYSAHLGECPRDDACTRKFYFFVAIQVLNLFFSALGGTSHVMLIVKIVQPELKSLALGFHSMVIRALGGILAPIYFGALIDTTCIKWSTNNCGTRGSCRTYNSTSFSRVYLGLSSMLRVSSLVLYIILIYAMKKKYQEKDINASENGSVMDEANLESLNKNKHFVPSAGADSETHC

[4] = biological target: T2, PXR (Nuclear receptor subfamily 1 group I member 2) (Homo sapiens, UniProt O75469); test: Activation of PXR (unknown origin) relative to rifampicin; assay type: ADME; conditions: read-out: FC
T2 sequence (O75469 whole entry): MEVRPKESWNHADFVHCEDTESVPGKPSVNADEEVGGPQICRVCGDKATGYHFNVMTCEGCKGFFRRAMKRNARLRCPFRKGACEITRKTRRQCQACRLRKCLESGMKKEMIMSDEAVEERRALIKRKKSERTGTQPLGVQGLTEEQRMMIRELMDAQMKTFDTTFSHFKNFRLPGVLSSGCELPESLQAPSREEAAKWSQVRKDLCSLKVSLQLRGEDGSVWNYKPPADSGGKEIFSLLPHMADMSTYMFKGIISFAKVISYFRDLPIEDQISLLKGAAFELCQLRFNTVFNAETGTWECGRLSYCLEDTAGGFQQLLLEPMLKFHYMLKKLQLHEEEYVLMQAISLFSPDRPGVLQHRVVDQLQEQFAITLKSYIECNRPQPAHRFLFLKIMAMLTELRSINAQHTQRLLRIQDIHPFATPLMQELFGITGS

[5] = Stability in rat liver microsomes assessed as compound metabolism; assay type: ADME, microsome
[6] = Dissociation constant, pKa of the compound; assay type: physicochemical
Salmonella typhimurium = test: Genotoxicity in Salmonella typhimurium by Ames test; assay type: toxicity, organism-based; conditions: salmonella enterica subsp. enterica serovar typhimurium
Cynomolgus monkey [7] = test: Clearance in cynomolgus monkey at 1 mg/kg, iv by LC-MS/MS method relative to liver blood flow; assay type: ADME, organism-based, Macaca fascicularis; conditions: in vivo
[8] = Protein binding in dog plasma; assay type: ADME, cell-free, Canis lupus familiaris; conditions: read-out: PPB
Hepatocyte [9] = test: Stability in human hepatocytes assessed as compound metabolism; assay type: ADME, cell-based
Hepatocyte [10] = test: Stability in dog hepatocytes assessed as compound metabolism; assay type: ADME, cell-based, Canis lupus familiaris
[11] = biological target: T3, Nuclear receptor subfamily 1 group I member 2 (Homo sapiens, UniProt O75469); test: Activation of PXR in human hepatocytes assessed as induction of […] mRNA expression; assay type: ADME, cell-based
T3 sequence (O75469 whole entry): T2 sequence (O75469 whole entry)

[12] = Protein binding in rat plasma; assay type: ADME, cell-free; conditions: read-out: PPB
[13] = Solubility in pH 3.1 buffer; assay type: physicochemical
[14] = Drug excretion in rat bile assessed as unchanged compound level at 2.5 mg/kg, iv; assay type: ADME, organism-based; conditions: read-out: Drug excretion
[15] = biological target: T3, Nuclear receptor subfamily 1 group I member 2; test: Activation of PXR (unknown origin); assay type: ADME
Cytochrome P450 2C9 = Cytochrome P450 2C9 (Homo sapiens, UniProt P11712); test: Inhibition of CYP2C9 (unknown origin); assay type: ADME
Hepatocyte [16] = test: Stability in rat hepatocytes assessed as compound metabolism; assay type: ADME, cell-based
[17] = Ratio of drug level in liver to plasma of cynomolgus monkey; assay type: ADME, cell-free, Macaca fascicularis
[18] = Cytotoxicity in human HuH7 replicon cells by MTS assay; assay type: cell-based, Huh-7
Canis familiaris [19] = test: Toxicity in male dog up to 750 mg/kg/day, po for 7 days; assay type: organism-based, Canis lupus familiaris; conditions: in vivo, 168 h
Cytochrome P450 2D6 = Cytochrome P450 2D6 (Homo sapiens, UniProt P10635); test: Inhibition of CYP2D6 (unknown origin); assay type: ADME
[20] = Permeability in MDCK2 cells; assay type: ADME, cell-based, Canis lupus familiaris, MDCK-II; conditions: dog, MDCK; read-out: permeability
[21] = Stability in human liver microsomes assessed as compound metabolism; assay type: ADME, microsome
[22] = Ratio of drug level in brain to plasma of rat; assay type: ADME, cell-free; conditions: read-out: BPR
Cytochrome P450 3A4 = Cytochrome P450 3A4 (Homo sapiens, UniProt P08684); test: Inhibition of CYP3A4 (unknown origin); assay type: ADME
[23] = Ratio of drug level in liver to plasma of rat; assay type: ADME, cell-free
[24] = Drug excretion in rat feces assessed as unchanged compound level at 2.5 mg/kg, iv; assay type: ADME, organism-based; conditions: faeces, read-out: Drug excretion
[25] = Therapeutic index, ratio of CC50 for human HuH7 replicon cells to EC50 for inhibition of HCV NS5A in HCV genotype 1b assessed as reduction in viral replication by cell based replicon assay; assay type: toxicity; conditions: read-out: Ratio CC50/EC50
[26] = Drug excretion in rat urine assessed as unchanged compound level at 2.5 mg/kg, iv; assay type: ADME, organism-based; conditions: read-out: Drug excretion
Rattus norvegicus [27] = test: Toxicity in male rat assessed as increase in monocyte level at 100 mg/kg/day, po for 7 days; assay type: organism-based; conditions: in vivo, 168 h
Hepatocyte [28] = test: Stability in cynomolgus monkey hepatocytes assessed as compound metabolism; assay type: ADME, cell-based, Macaca fascicularis
[29] = Drug excretion in dog assessed as unchanged compound level at 1 mg/kg, iv; assay type: ADME, organism-based, Canis lupus familiaris; conditions: in vivo
[30] = Ratio of drug level in liver to plasma of dog; assay type: ADME, cell-free, Canis lupus familiaris
[31] = Stability in cynomolgus monkey liver microsomes assessed as compound metabolism; assay type: ADME, Macaca fascicularis, microsome
[32] = biological target: Voltage-gated L-type calcium channel (Homo sapiens, UniProt Q13936+Q13698+Q01668+O60840); test: Inhibition of L-type calcium channel (unknown origin) at 30 uM; assay type: protein assay
[33] = Ratio of drug level in brain to plasma of dog; assay type: ADME, cell-free, Canis lupus familiaris; conditions: read-out: BPR
Rattus norvegicus [34] = test: Clearance in Sprague-Dawley rat at 2.5 mg/kg, iv by LC-MS/MS method relative to liver blood flow; assay type: ADME, organism-based; conditions: in vivo
[35] = biological target: Voltage-gated inwardly rectifying potassium channel KCNH2 (Homo sapiens, UniProt Q12809); test: Inhibition of human ERG at 30 uM
Rattus norvegicus [36] = test: Toxicity in male rat assessed as induction of mortality up to 750 mg/kg/day, po for 7 days; assay type: organism-based; conditions: in vivo, 168 h
Rattus norvegicus [37] = test: Toxicity in male rat assessed as increase in monocyte level at 750 mg/kg/day, po for 7 days; assay type: organism-based; conditions: in vivo, 168 h
[38] = Toxicity in female rat up to 30 mg/kg/day, po for 4 days; assay type: organism-based; conditions: in vivo
[39] = Stability in dog liver microsomes assessed as compound metabolism; assay type: ADME, Canis lupus familiaris, microsome
[40] = Solubility in pH 7.3 buffer; assay type: physicochemical
[41] = Protein binding in cynomolgus monkey plasma; assay type: ADME, cell-free, Macaca fascicularis; conditions: read-out: PPB
[42] = Effective half life in Sprague-Dawley rat at 2.5 mg/kg, iv by LC-MS/MS method; assay type: ADME, organism-based; conditions: in vivo, read-out: t1/2eff (converted)
[43] = Clearance in cynomolgus monkey at 1 mg/kg, iv by LC-MS/MS method; assay type: ADME, organism-based, Macaca fascicularis; conditions: in vivo
[44] = Clearance in beagle dog at 1 mg/kg, iv by LC-MS/MS method; assay type: ADME, organism-based, Canis lupus familiaris; conditions: in vivo
[45] = Clearance in Sprague-Dawley rat at 2.5 mg/kg, iv by LC-MS/MS method; assay type: ADME, organism-based; conditions: in vivo
Cynomolgus monkey [46] = test: AUC in cynomolgus monkey at 2 mg/kg, po by LC-MS/MS method; assay type: ADME, organism-based, Macaca fascicularis; conditions: in vivo
[47] = Drug level in beagle dog at 2 mg/kg, po after 24 hrs by LC-MS/MS method; assay type: ADME, organism-based, Canis lupus familiaris; conditions: in vivo, read-out: Drug uptake
[48] = Drug level in cynomolgus monkey at 2 mg/kg, po after 24 hrs by LC-MS/MS method; assay type: ADME, organism-based, Macaca fascicularis; conditions: in vivo, read-out: Drug uptake
[49] = Drug level in Sprague-Dawley rat at 5 mg/kg, po after 24 hrs by LC-MS/MS method; assay type: ADME, organism-based; conditions: in vivo, read-out: Drug uptake
[50] = Oral bioavailability in Sprague-Dawley rat at 5 mg/kg by LC-MS/MS method; assay type: ADME, organism-based; conditions: in vivo
[51] = Oral bioavailability in cynomolgus monkey at 2 mg/kg by LC-MS/MS method; assay type: ADME, organism-based, Macaca fascicularis; conditions: in vivo
[52] = Effective half life in beagle dog at 1 mg/kg, iv by LC-MS/MS method; assay type: ADME, organism-based, Canis lupus familiaris; conditions: in vivo, read-out: t1/2eff (converted)
[53] = Oral bioavailability in beagle dog at 2 mg/kg by LC-MS/MS method; assay type: ADME, organism-based, Canis lupus familiaris; conditions: in vivo
[54] = Effective half life in cynomolgus monkey at 1 mg/kg, iv by LC-MS/MS method; assay type: ADME, organism-based, Macaca fascicularis; conditions: in vivo, read-out: t1/2eff (converted)
Canis familiaris [55] = test: AUC in beagle dog at 2 mg/kg, po by LC-MS/MS method; assay type: ADME, organism-based, Canis lupus familiaris; conditions: in vivo

Cytochrome P450 2D6, sequence (P10635 whole entry): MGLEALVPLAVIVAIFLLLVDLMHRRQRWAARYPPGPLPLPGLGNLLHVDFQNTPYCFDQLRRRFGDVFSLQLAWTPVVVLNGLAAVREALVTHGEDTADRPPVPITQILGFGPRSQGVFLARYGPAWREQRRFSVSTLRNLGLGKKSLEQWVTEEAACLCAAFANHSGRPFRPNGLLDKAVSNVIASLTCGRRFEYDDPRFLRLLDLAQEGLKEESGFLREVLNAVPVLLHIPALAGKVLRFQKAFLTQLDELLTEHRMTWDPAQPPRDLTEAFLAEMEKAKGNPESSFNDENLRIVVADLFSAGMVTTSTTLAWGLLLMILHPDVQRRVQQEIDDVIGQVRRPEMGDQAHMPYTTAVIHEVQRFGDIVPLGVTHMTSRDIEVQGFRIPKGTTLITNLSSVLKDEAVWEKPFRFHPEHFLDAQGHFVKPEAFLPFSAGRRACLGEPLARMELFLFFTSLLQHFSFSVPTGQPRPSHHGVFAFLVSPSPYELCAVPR
Cytochrome P450 2C9, sequence (P11712 whole entry): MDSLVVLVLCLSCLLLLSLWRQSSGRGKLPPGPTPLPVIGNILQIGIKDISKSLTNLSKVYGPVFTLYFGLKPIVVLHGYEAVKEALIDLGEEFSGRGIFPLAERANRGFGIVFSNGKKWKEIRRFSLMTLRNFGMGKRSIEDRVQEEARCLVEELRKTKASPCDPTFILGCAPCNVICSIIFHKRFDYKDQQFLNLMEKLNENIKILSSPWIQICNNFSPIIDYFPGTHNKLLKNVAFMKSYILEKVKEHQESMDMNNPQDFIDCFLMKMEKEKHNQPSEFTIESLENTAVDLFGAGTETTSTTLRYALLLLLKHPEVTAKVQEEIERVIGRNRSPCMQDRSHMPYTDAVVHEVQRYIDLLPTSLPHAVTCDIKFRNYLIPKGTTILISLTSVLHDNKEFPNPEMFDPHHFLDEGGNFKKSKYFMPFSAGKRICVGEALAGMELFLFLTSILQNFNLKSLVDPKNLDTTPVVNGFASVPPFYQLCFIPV
Cytochrome P450 3A4, sequence (P08684 whole entry): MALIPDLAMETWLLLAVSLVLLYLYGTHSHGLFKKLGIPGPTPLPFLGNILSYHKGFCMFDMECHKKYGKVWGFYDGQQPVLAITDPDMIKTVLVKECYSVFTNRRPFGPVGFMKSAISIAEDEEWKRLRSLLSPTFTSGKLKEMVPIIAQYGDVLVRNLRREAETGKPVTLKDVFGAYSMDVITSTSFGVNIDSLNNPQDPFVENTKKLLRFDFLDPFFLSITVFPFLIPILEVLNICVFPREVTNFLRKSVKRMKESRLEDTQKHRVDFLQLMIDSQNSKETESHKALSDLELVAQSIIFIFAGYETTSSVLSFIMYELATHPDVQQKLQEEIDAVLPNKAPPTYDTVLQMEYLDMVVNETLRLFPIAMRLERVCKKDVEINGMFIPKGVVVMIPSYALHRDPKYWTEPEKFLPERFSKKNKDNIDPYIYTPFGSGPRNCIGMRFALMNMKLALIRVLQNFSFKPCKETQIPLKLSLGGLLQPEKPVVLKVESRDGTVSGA
Voltage-gated inwardly rectifying potassium channel KCNH2, sequence (Q12809 whole entry): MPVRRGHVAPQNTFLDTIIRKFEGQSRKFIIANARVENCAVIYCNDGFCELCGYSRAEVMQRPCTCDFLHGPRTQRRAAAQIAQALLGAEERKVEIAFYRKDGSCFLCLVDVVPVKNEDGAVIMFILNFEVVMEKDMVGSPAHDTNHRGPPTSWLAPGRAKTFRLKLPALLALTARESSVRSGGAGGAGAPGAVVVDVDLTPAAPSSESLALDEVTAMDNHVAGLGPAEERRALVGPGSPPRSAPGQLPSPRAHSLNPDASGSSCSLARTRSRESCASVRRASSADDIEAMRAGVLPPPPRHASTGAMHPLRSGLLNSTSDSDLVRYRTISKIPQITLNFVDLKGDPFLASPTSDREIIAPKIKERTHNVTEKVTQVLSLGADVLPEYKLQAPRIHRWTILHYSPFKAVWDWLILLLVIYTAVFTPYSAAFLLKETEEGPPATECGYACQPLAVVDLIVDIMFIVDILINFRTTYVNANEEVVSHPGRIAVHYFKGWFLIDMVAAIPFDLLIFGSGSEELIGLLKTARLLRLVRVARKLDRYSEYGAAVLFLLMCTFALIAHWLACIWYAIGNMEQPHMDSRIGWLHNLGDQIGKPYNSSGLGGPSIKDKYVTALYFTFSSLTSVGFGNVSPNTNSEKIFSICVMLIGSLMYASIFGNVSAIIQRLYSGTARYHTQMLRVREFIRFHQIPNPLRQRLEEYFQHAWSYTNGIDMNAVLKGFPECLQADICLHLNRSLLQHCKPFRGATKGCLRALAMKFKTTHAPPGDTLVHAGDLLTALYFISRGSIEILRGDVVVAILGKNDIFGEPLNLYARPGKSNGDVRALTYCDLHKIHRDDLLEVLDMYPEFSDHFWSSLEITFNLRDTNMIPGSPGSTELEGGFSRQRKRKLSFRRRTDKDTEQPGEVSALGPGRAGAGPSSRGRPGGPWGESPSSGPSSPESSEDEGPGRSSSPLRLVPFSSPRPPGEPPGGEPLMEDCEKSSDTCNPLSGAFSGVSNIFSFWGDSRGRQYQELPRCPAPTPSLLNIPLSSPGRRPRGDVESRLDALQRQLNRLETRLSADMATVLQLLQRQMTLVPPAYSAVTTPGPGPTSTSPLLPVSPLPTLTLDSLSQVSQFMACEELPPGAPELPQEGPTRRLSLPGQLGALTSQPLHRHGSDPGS

## COC(=O)N[C@H](C(=O)N1CC(F)(F)C[C@H]1c1ncc(-c2ccc(-c3ccc4c(ccc5nc([C@@H]6C[Si](C)(C)CN6C(=O)[C@@H](NC(=O)OC)C(C)C)[nH]c54)c3)cc2)[nH]1)C(C)C
Canis familiaris [1]
  clearance: 3 to 7%
[2]
  Kp: 0.04
[3]
  inhibition (INH): Active
[4]
  fold induction: 0.2
[5]
  Stability: Stable
[6]
  pKa: 3.57 to 5.69
Salmonella typhimurium
  Activity: Non-Toxic
Cynomolgus monkey [7]
  clearance: 3 to 7%
[8]
  fraction unbound: < 0.001
Hepatocyte [9]
  Stability: Stable
Hepatocyte [10]
  Stability: Stable
[11]
  Activity: > 3 µM
[12]
  fraction unbound: < 0.001
[13]
  solubility: 0.065 mg/mL (≈ 77.1 µM)
[14]
  dose excreted: 27%
[15]
  Activity: > 10 µM
Cytochrome P450 2C9
  INH: > 20 µM
Hepatocyte [16]
  Stability: Stable
[17]
  Kp: 27
[18]
  CC50: > 25 µM
Canis familiaris [19]
  Activity: Non-Toxic
Cytochrome P450 2D6
  INH: > 20 µM
[20]
  Papp: 8 nm/s
[21]
  Stability: Stable
[22]
  Kp: 0.04
Cytochrome P450 3A4
  INH: > 20 µM
[23]
  Kp: 27
[24]
  dose excreted: 27%
[25]
  selectivity ratio: > 8e+06
[26]
  dose excreted: 27%
Rattus norvegicus [27]
  Activity: Toxic
Hepatocyte [28]
  Stability: Stable
[29]
  Drug excretion: Active
[30]
  Kp: 27
[31]
  Stability: Stable
[32]
  inhibition (INH): Not Active
[33]
  Kp: 0.04
Rattus norvegicus [34]
  clearance: 3 to 7%
[35]
  inhibition (INH): Not Active
Rattus norvegicus [36]
  Activity: Non-Toxic
Rattus norvegicus [37]
  Activity: Toxic
[38]
  NOAEL at 96 h: > 30 mg/kg/day
[39]
  Stability: Stable
[40]
  solubility: 0.0027 mg/mL (≈ 3.2 µM)
[41]
  fraction unbound: < 0.001

## COC(=O)N[C@H](C(=O)N1C[Si](C)(C)C[C@H]1c1ncc(-c2ccc(-c3ccc4c(ccc5nc([C@@H]6CC(F)(F)CN6C(=O)[C@@H](NC(=O)OC)C(C)C)[nH]c54)c3)cc2)[nH]1)C(C)C
[4]
  fold induction: 0.31
[42]
  half-life: 10 h
[43]
  clearance: 0.042 L/h/kg
[44]
  clearance: 0.042 L/h/kg
[11]
  Activity: 0.3 µM
[45]
  clearance: 0.42 L/h/kg
Cytochrome P450 2C9
  INH: > 20 µM
Cytochrome P450 2D6
  INH: > 20 µM
Cynomolgus monkey [46]
  AUC: 26 uM.hr/ml
Cytochrome P450 3A4
  INH: > 20 µM
[47]
  concentration at 24 h: 0.0004 µM
[48]
  concentration at 24 h: 0.273 µM
[49]
  concentration at 24 h: 0.094 µM
[50]
  bioavailability: 64%
[51]
  bioavailability: 45%
[52]
  half-life: 30 h
[53]
  bioavailability: 47%
[54]
  half-life: 15 h
Canis familiaris [55]
  AUC: 32 uM.hr/ml
